Reference: article PMC4744035, “In Vivo, In Vitro, and In Silico Characterization of Peptoids as Antimicrobial Agents” (PLoS ONE, 2016)
Converted amounts (≈) assume the structure as drawn. Square brackets hold non-standard residues; d marks the D form. Peptide text beside a SMILES is read from it. Nspe = C[C@H](NCC(=O)O)c1ccccc1; Nlys = NCCCCNCC(=O)O

Tests used:
NIH 3T3 cells = test: Metabolic activity, MTS assay; assay type: cell-based, mouse
Description: NIH 3T3 mouse fibroblast cells were cultured in complete Dulbecco’s Modified Eagle’s Media. A peptoid solution plate (100 µL per well) was prepared by serial dilution of aqueous peptoid stock solutions in Hank’s balanced salt solution. A day-old cell monolayer was washed thoroughly with Hank’s balanced salt solution and replenished with 100 µL Hank’s balanced salt solution per well. Peptoid solutions were transferred onto the day-old cell monolayers, which contained approximately 5000 cells per well. […] The average of six replicate trials is reported.

erythrocytes = test: Hemolytic activity (HD10/HD50); assay type: cell-based
From the text: Table 1 Characteristics of antimicrobial peptoids, screened for activity against B. subtilis and E. coli bacterial strains. | column: HD10 / HD50

E. faecium T62764 (VRE) = test: microbe, parasite or virus in culture; details: T62764 (VRE)
Description: (§1) The MICs of test agents were measured using a modified broth micro-dilution method in Difco Mueller Hinton medium, on a panel of bacterial pathogens that were both susceptible and resistant to common antibiotics (S1 File). Briefly, serial dilutions were performed in 0.01% acetic acid containing 0.2% bovine serum albumin at 10-fold the desired final concentration. Ten μL of the 10-fold concentrated test reagents were added to each well of a 96-well polypropylene microtitre plate containing 90 μL of Mueller Hinton media per well. Bacteria were added to the plate from an overnight culture at a final concentration of 2–7 x 10^5 CFU/mL and incubated overnight at 37°C. The MIC is defined as the concentration at which no growth was observed.
(§2) Screening of peptoid antimicrobial activity against a panel of multidrug resistant superbugs was done according to the protocol described in the manuscript. The bacterial strains used in this panel included; P. aeruginosa PAO1 strain H103 [1], P. maltophilia ATCC#13637, S. aureus ATCC#25923 [1], E. faecalis ATCC#29212 [2], and E. cloacae 218R, constitutively expressing Class C chromosomal β-lactamase, were from the Hancock lab strains collection. An MRSA clinical isolate was kindly provided by Anthony Chow (Vancouver General Hospital, Vancouver, Canada). Two Klebsiella pneumoniae and two E. coli clinical isolates expressing extended spectrum β-lactamases (ESBL) were kindly provided by George Zhanel (Health Sciences Centre, Winnipeg, Canada). Vancomycin-resistant clinical isolates of Enterococcus faecalis and E. faecium were obtained from Ana M. Paccagnella (BC Centre for Disease Control, Vancouver, Canada). Three clinical isolates (#9, #198 and #213) of multi-drug resistant P. aeruginosa, were kindly provided by Carlos Kiffer (University of São Paulo, Brazil). […] Three P. aeruginosa clinical isolates of the Liverpool epidemic strain (LES) (H1027, H1030 and LES400) were all kindly provided by Craig Winstanley (University of Liverpool, UK). […] All tested bacterial strains were categorized as biohazard level 2 pathogens.

E. faecium mic80 (VRE) = test: microbe, parasite or virus in culture; details: mic80 (VRE)
Description: as §1, §2

[1] = test system: K. pneumonia 61962 (ESBL); test: microbe, parasite or virus in culture
Description: as §1, §2

E. coli 63103 (ESBL) = test: microbe, parasite or virus in culture; details: 63103 (ESBL)
Description: as §1, §2

E. faecalis F43559 (VRE) = test: microbe, parasite or virus in culture; details: F43559 (VRE)
Description: as §1, §2

P. aeruginosa 198 (MDR) = test: microbe, parasite or virus in culture; details: 198 (MDR)
Description: as §1, §2

E. faecalis W61950 (VRE) = test: microbe, parasite or virus in culture; details: W61950 (VRE)
Description: as §1, §2

E. coli 64771 (ESBL) = test: microbe, parasite or virus in culture; details: 64771 (ESBL)
Description: as §1, §2

[2] = test system: P. aeruginosa H1027 (MDR); test: microbe, parasite or virus in culture; details: H1027 (MDR)
Description: as §1, §2

S. aureus C623 (MRSA) = test: microbe, parasite or virus in culture; details: C623
Description: as §1, §2

S. aureus ATCC25923 = test: microbe, parasite or virus in culture; details: ATCC25923
Description: as §1, §2

P. maltophilia ATCC13637 = test: microbe, parasite or virus in culture; details: ATCC13637
Description: as §1, §2

P. aeruginosa 213 (MDR) = test: microbe, parasite or virus in culture; details: 213 (MDR)
Description: as §1, §2

[3] = test system: E. cloacae 218R Class C β-lactamase; test: microbe, parasite or virus in culture; details: 218R Class C β-lactamase
Description: as §1, §2

[4] = test system: P. aeruginosa H103 (wild type); test: microbe, parasite or virus in culture; details: H103 (wild type)
Description: as §1, §2

[5] = test system: P. aeruginosa H1030 (MDR); test: microbe, parasite or virus in culture; details: P. aeruginosa H1030 (MDR)
Description: as §1, §2

[6] = test system: P. aeruginosa LES400 (MDR); test: microbe, parasite or virus in culture; details: LES400 (MDR)
Description: as §1, §2

P. aeruginosa 9 (MDR) = test: microbe, parasite or virus in culture; details: 9 (MDR)
Description: as §1, §2

[7] = test system: K. pneumonia 63575 (ESBL); test: microbe, parasite or virus in culture
Description: as §1, §2

E. faecalis ATCC29212 = test: microbe, parasite or virus in culture; details: ATCC29212
Description: as §1, §2

E. coli ATCC 35218 = assay type: cell-based
Description: MICs against B. subtilis and E. coli screening bacterial strains were determined using serial dilution in 96-well microtiter plates in accordance with CLSI M7-A6 protocols. Briefly, peptoid solution in cation-adjusted Mueller-Hinton broth was prepared by 2:1 serial dilution with a total volume of 50 µL per well. In experimental wells, 50 µL of bacterial inoculums (1 x 10^6 CFU/mL) were added to the peptoid solutions. Positive controls consisted of 50 µL inoculums added to 50 µL cation-adjusted Mueller-Hinton broth containing no peptoid, while negative controls contained only cation-adjusted Mueller-Hinton broth. […] Experiments were reproducible among three independent replicates, each consisting of two parallel trials.

| Structure (SMILES) | ID50 (inhibitory dose, metabolic activity) (NIH 3T3 cells) [µM] | HD10 (hemolytic activity) (erythrocytes) | HD50 (hemolytic activity) (erythrocytes) | MIC (E. faecium T62764 (VRE)) [µg/mL] | MIC (E. faecium mic80 (VRE)) [µg/mL] | MIC [1] [µg/mL] | MIC (E. coli 63103 (ESBL)) [µg/mL] | MIC (E. faecalis F43559 (VRE)) [µg/mL] | MIC (P. aeruginosa 198 (MDR)) [µg/mL] | MIC (E. faecalis W61950 (VRE)) [µg/mL] | MIC (E. coli 64771 (ESBL)) [µg/mL] | MIC [2] [µg/mL] | MIC (S. aureus C623 (MRSA)) [µg/mL] | MIC (S. aureus ATCC25923) [µg/mL] | MIC (P. maltophilia ATCC13637) [µg/mL] | MIC (P. aeruginosa 213 (MDR)) [µg/mL] | MIC [3] [µg/mL] | MIC [4] [µg/mL] | MIC [5] [µg/mL] | MIC E. coli (E. coli ATCC 35218) [µM] | further results |
| --- | --- | --- | --- | --- | --- | --- | --- | --- | --- | --- | --- | --- | --- | --- | --- | --- | --- | --- | --- | --- | --- |
| C[C@H](NCC(=O)N(CCCCN)CC(=O)N(CC(=O)N(CCCCN)CC(=O)N(CCCCN)CC(=O)N(CCCCN)CC(=O)N(CC(=O)N(CCCCN)CC(=O)N(CC(=O)N(CCCCN)CC(=O)N(CCCCN)CC(=O)N(CC(=O)N(CC(=O)N(CCCCN)CC(=O)N(CC(N)=O)[C@@H](C)c1ccccc1)[C@@H](C)c1ccccc1)[C@@H](C)c1ccccc1)[C@@H](C)c1ccccc1)[C@@H](C)c1ccccc1)[C@@H](C)c1ccccc1)c1ccccc1 [1B15mer-NLys4,6,10, H-(Nspe-NLys)2-NLys2-(Nspe-NLys)2-NLys-Nspe2-NLys-Nspe-NH2] (H-[Nspe][Nlys][Nspe][Nlys][Nlys][Nlys][Nspe][Nlys][Nspe][Nlys][Nlys][Nspe][Nspe][Nlys][Nspe]-NH2) | 40 | >200 / >200 | >200 / >200 |  |  |  |  |  |  |  |  |  |  |  |  |  |  |  |  |  |  |
| C[C@H](NCC(=O)N(CCCCN)CC(=O)N(CC(=O)N(CCCCN)CC(=O)N(CCCCN)CC(=O)N(CC(=O)N(CC(=O)N(CCCCN)CC(=O)N(CC(=O)N(CCCCN)CC(=O)N(CCCCN)CC(=O)N(CC(=O)N(CC(=O)N(CCCCN)CC(=O)N(CC(N)=O)[C@@H](C)c1ccccc1)[C@@H](C)c1ccccc1)[C@@H](C)c1ccccc1)[C@@H](C)c1ccccc1)[C@@H](C)c1ccccc1)[C@@H](C)c1ccccc1)[C@@H](C)c1ccccc1)c1ccccc1 [1B15mer-NLys4,10, H-(Nspe-NLys-Nspe-NLys-NLys-Nspe)2-Nspe-NLys-Nspe-NH2] (H-[Nspe][Nlys][Nspe][Nlys][Nlys][Nspe][Nspe][Nlys][Nspe][Nlys][Nlys][Nspe][Nspe][Nlys][Nspe]-NH2) | 16 | >200 / >200 | >200 / >200 | 4 (≈ 1.81 µM) | 32 (≈ 14.5 µM) | 256 (≈ 116 µM) | 256 (≈ 116 µM) | 256 (≈ 116 µM) | 16 (≈ 7.26 µM) | 128 (≈ 58.1 µM) |  |  |  |  |  |  |  |  |  |  |  |
| C[C@@H](c1ccccc1)N(CC(N)=O)C(=O)CN(C(=O)CN(CCCCN)C(=O)CN(C(=O)CN(C(=O)CN(CCCCN)C(=O)CN(C(=O)CN(C(=O)CN(CCCCN)C(=O)[C@@H]1CCCN1C(=O)CN(C(=O)CNCCCCN)[C@@H](C)c1ccccc1)[C@@H](C)c1ccccc1)[C@@H](C)c1ccccc1)[C@@H](C)c1ccccc1)[C@@H](C)c1ccccc1)[C@@H](C)c1ccccc1 [Peptoid 1-Pro3, H-NLys-Nspe-L-Pro-(NLys-Nspe-Nspe)3-NH2] (H-[Nlys][Nspe]P[Nlys][Nspe][Nspe][Nlys][Nspe][Nspe][Nlys][Nspe][Nspe]-NH2) |  | 74 | > 200 | 2 (≈ 1.14 µM) | 4 (≈ 2.28 µM) | 32 (≈ 18.2 µM) | 16 (≈ 9.12 µM) | 8 (≈ 4.56 µM) | 16 (≈ 9.12 µM) | 16 (≈ 9.12 µM) | 8 (≈ 4.56 µM) | 2 (≈ 1.14 µM) | 4 (≈ 2.28 µM) | 4 (≈ 2.28 µM) | 1 (≈ 0.57 µM) | 8 (≈ 4.56 µM) | 16 (≈ 9.12 µM) | 8 (≈ 4.56 µM) | 16 (≈ 9.12 µM) | 12.5 (≈ 21.9 µg/mL) | MIC [6]: 8 µg/mL (≈ 4.56 µM); MIC (P. aeruginosa 9 (MDR)): 128 µg/mL (≈ 72.9 µM); MIC [7]: 32 µg/mL (≈ 18.2 µM); MIC (E. faecalis ATCC29212): 8 µg/mL (≈ 4.56 µM) |
| C[C@@H](c1ccccc1)N(CC(N)=O)C(=O)CN(C(=O)CN(CCCCN)C(=O)[C@@H]1CCCN1C(=O)CN(C(=O)CN(CCCCN)C(=O)CN(C(=O)CN(C(=O)CN(CCCCN)C(=O)CN(C(=O)CN(C(=O)CNCCCCN)[C@@H](C)c1ccccc1)[C@@H](C)c1ccccc1)[C@@H](C)c1ccccc1)[C@@H](C)c1ccccc1)[C@@H](C)c1ccccc1)[C@@H](C)c1ccccc1 [Peptoid 1-Pro9, H-(NLys-Nspe2)2-NLys-Nspe-L-Pro-(NLys-Nspe2)-NH2] (H-[Nlys][Nspe][Nspe][Nlys][Nspe][Nspe][Nlys][Nspe]P[Nlys][Nspe][Nspe]-NH2) |  | 165 | > 200 | 2 (≈ 1.14 µM) | 8 (≈ 4.56 µM) | 128 (≈ 72.9 µM) | 32 (≈ 18.2 µM) | 8 (≈ 4.56 µM) | 32 (≈ 18.2 µM) | 32 (≈ 18.2 µM) | 8 (≈ 4.56 µM) | 2 (≈ 1.14 µM) | 8 (≈ 4.56 µM) | 8 (≈ 4.56 µM) | 2 (≈ 1.14 µM) | 16 (≈ 9.12 µM) | 32 (≈ 18.2 µM) | 8 (≈ 4.56 µM) | 32 (≈ 18.2 µM) | 12.5 (≈ 21.9 µg/mL) | MIC [6]: 16 µg/mL (≈ 9.12 µM); MIC (P. aeruginosa 9 (MDR)): 256 µg/mL (≈ 146 µM); MIC [7]: 64 µg/mL (≈ 36.5 µM); MIC (E. faecalis ATCC29212): 16 µg/mL (≈ 9.12 µM) |
| C[C@@H](c1ccccc1)N(CC(N)=O)C(=O)CN(CCCCN)C(=O)CN(C(=O)CN(C(=O)CN(CCCCN)C(=O)CN(C(=O)CN(C(=O)CN(CCCCN)C(=O)CN(C(=O)CN(C(=O)CNCCCCN)[C@@H](C)c1ccccc1)[C@@H](C)c1ccccc1)[C@@H](C)c1ccccc1)[C@@H](C)c1ccccc1)[C@@H](C)c1ccccc1)[C@@H](C)c1ccccc1 [Peptoid 1_11mer, H-(NLys-Nspe-Nspe)3-NLys-Nspe-NH2] (H-[Nlys][Nspe][Nspe][Nlys][Nspe][Nspe][Nlys][Nspe][Nspe][Nlys][Nspe]-NH2) | 11 | 103 | > 200 |  |  |  |  |  |  |  |  |  |  |  |  |  |  |  |  | 6.3 (≈ 10.4 µg/mL) |  |
